# Test results as given in ChEMBL document CHEMBL6071212, “Studies of Structure-Activity Relationship of 2-(Pyrrolidin-1ylmethyl)-1H-pyrrole-Based ST2 Inhibitors and Their Inhibition of Mast Cells Activation” (ACS Med Chem Lett, 2024).
# The source made the active and inactive calls. The calls are words filed in the database; no cut-off is given here.
# Key:
# [1] = Inhibition of ST2/IL-33 (unknown origin) expressed in HEK-Blue IL-33 cells assessed as decrease in NF-kappaB […]; format: cell-based; details: Homo sapiens
# [2] = Inhibition of ST2/IL-33 (unknown origin) by AlphaLISA assay; set-up: species or system Homo sapiens
# [3] = Metabolic stability in mouse liver microsomes assessed as half life; format: ADME, Microsome
# [4] = system: LAD2; test: Inhibition of ST2 in IL-33-stimulated human LAD2 cells assessed as residual activity at 30 uM incubated for 24 hrs by flow cytometry (reference value: 24.18 %); format: cell-based
# [5] = system: LAD2; test: Inhibition of IL-1beta secretion in IL-33/substance P-stimulated human LAD2 cells at 50 uM incubated for 24 hrs followed by 48/80 addition measured after 30 mins by ELISA; format: functional, cell-based
# [6] = system: LAD2; test: Inhibition of IL-1beta secretion in IL-33/substance P-stimulated human LAD2 cells incubated for 24 hrs followed by 48/80 addition measured after 30 mins by ELISA; format: functional, cell-based; details: dose 10-30 µM, time 24.5 hrs
SMILES,IC50 [1] [µM],IC50 [2] [µM],further results
Cc1cc(-c2ccc(CN3CCCC3c3ccc(N(C)C)cc3)[nH]2)ccc1[N+](=O)[O-] (configuration not stated),9.57,8.12,half-life [3]: 1.86 min
CN(C)c1ccc(C2CCCN2Cc2ccc(-c3ccc([N+](=O)[O-])c(C(=O)O)c3)[nH]2)cc1 (configuration not stated),–,> 100,–
CN(C)c1ccc(C2CCCN2Cc2ccc(-c3ccc([N+](=O)[O-])cc3)n2C)cc1 (configuration not stated),–,10.7,–
CN(C)c1ccc(C2CCCN2Cc2c[nH]c(-c3ccc([N+](=O)[O-])cc3)c2)cc1 (configuration not stated),–,17.9,–
COC(=O)c1cc(-c2ccc(CN3CCCC3c3ccc(N(C)C)cc3)[nH]2)ccc1[N+](=O)[O-] (configuration not stated),6.52,8.1,half-life [3]: 2.2 min
CN(C)c1ccc(C2SCCN2Cc2ccc(-c3ccc([N+](=O)[O-])cc3)[nH]2)cc1 (configuration not stated),17.8,26.9,–
Cc1cc(-c2ccc(CN3CCCC3c3cccc(N[C@@H]4CCOC4)c3)[nH]2)ccc1[N+](=O)[O-] (some centres not stated),–,75.6,–
Cc1cc(-c2ccc(CN3CCCC3c3ccc(N4CCCC4)cc3)[nH]2)ccc1[N+](=O)[O-] (configuration not stated),11,7.48,half-life [3]: 4.59 min
Cc1ccc([N+](=O)[O-])c(-c2ccc(CN3CCCC3c3ccc(N(C)C)cc3)[nH]2)c1 (configuration not stated),10.6,12.1,–
CC(C)Oc1cc(-c2ccc(CN3CCCC3c3ccc(N(C)C)cc3)[nH]2)ccc1[N+](=O)[O-] (configuration not stated),10.2,15.6,half-life [3]: 1.91 min
CN(C)c1ccc(C2CCCN2Cc2ccc(-c3ccc([N+](=O)[O-])cc3)[nH]2)cc1 (configuration not stated),16.2,13,–
CN(C)c1ccc(C2CCCN2Cc2ccc(-c3ccc(C(N)=O)cc3)[nH]2)cc1 (configuration not stated),–,79.6,–
Cc1cc(-c2ccc(CN3CCCC3c3cccc(N4CCCC4)c3)[nH]2)ccc1[N+](=O)[O-] (configuration not stated),12.1,7.74,–
CN(C)c1ccc(C2CCCN2Cc2ccc(-c3ccc(C#N)cc3)[nH]2)cc1 (configuration not stated),–,33,–
CN(C)c1ccc(C2CCCN2Cc2ccc(-c3ccc([N+](=O)[O-])cc3)s2)cc1 (configuration not stated),–,14.1,–
CN(C)c1ccc(C2COCCN2Cc2ccc(-c3ccc4c(c3)OCO4)[nH]2)cc1 (configuration not stated),10.2,12.9,–
CN(C)c1ccc(C2CCCN2Cc2cnc(-c3ccc([N+](=O)[O-])cc3)[nH]2)cc1 (configuration not stated),–,24,–
CN(C)c1ccc(C2CCCN2Cc2ccc(-c3ccc([N+](=O)[O-])c(C(N)=O)c3)[nH]2)cc1 (configuration not stated),–,37.1,–
Cc1ccc(-c2ccc(CN3CCCC3c3ccc(N(C)C)cc3)[nH]2)c([N+](=O)[O-])c1 (configuration not stated),10.3,20,–

SMILES,IC50 [1] [µM],IC50 [2] [µM],further results
Cc1cc(-c2ccc(CN3CCCC3c3cccc(N[C@H]4CCOC4)c3)[nH]2)ccc1[N+](=O)[O-] (some centres not stated),–,56.2,–
Cc1cc([N+](=O)[O-])ccc1-c1ccc(CN2CCCC2c2ccc(N(C)C)cc2)[nH]1 (configuration not stated),7.26,17.9,–
CN(C)c1ccc(C2COCCN2Cc2ccc(-c3ccc([N+](=O)[O-])cc3)[nH]2)cc1 (configuration not stated),–,80.2,–
CN(C)c1ccc(C2CCCN2Cc2cc(-c3ccc([N+](=O)[O-])cc3)[nH]n2)cc1 (configuration not stated),–,> 100,–
COc1cc(-c2ccc(CN3CCCC3c3ccc(N(C)C)cc3)[nH]2)ccc1[N+](=O)[O-] (configuration not stated),7.15,12.2,Activity [4]: 19.8%; half-life [3]: 7.8 min
CN(C)c1ccc(C2CCCCN2Cc2ccc(-c3ccc([N+](=O)[O-])cc3)[nH]2)cc1 (configuration not stated),8.47,16.2,–
CN(C)C(=O)c1cc(-c2ccc(CN3CCCC3c3ccc(N(C)C)cc3)[nH]2)ccc1[N+](=O)[O-] (configuration not stated),–,25,–
COc1cc(OC)c2c(=O)cc(-c3ccc(OC)c(OC)c3)oc2c1,–,–,inhibition [5]: Active
CCn1c(CN2CCCC2c2ccc(N(C)C)cc2)ccc1-c1ccc([N+](=O)[O-])cc1 (configuration not stated),–,14.8,–
CN(C)c1ccc(C2CCCN2Cc2ccc(-c3ccc([N+](=O)[O-])c(N4CCCC4)c3)[nH]2)cc1 (configuration not stated),7.19,7,inhibition [6]: Dose-Dependent Effect; half-life [3]: 1.47 min
CN(C)c1ccc(C2CCCN2Cc2ncc(-c3ccc([N+](=O)[O-])cc3)[nH]2)cc1 (configuration not stated),–,17.7,–
Cc1cc(-c2ccc(CN3CCCC3c3cccc(N(C)C)c3)[nH]2)ccc1[N+](=O)[O-] (configuration not stated),–,10,–
CN(C)c1ccc(C2CCCN2Cc2ccc(-c3ccc([N+](=O)[O-])cc3)o2)cc1 (configuration not stated),–,17.4,–
CN(C)c1ccc(C2CCCN2Cc2ccc(-c3ccc([N+](=O)[O-])c(C#N)c3)[nH]2)cc1 (configuration not stated),–,12.8,–
CN(C)c1ccc(C2CCCN2Cc2ccc(-c3ccc([N+](=O)[O-])c(CO)c3)[nH]2)cc1 (configuration not stated),–,20.3,–
CCNC(=O)c1cc(-c2ccc(CN3CCCC3c3ccc(N(C)C)cc3)[nH]2)ccc1[N+](=O)[O-] (configuration not stated),–,46.9,–
Cc1cc(-c2ccc(CN3CCCC3c3cccc(N4CCC(O)C4)c3)[nH]2)ccc1[N+](=O)[O-] (configuration not stated),–,53.5,–
Cc1cc([N+](=O)[O-])ccc1-c1ccc(CN2CCCC2c2ccc(N(C)C)cc2)o1 (configuration not stated),52.5,7.77,half-life [3]: 3.64 min
Cc1cc(-c2ccc(CN3CCCC3c3cccc(N4CCC4)c3)[nH]2)ccc1[N+](=O)[O-] (configuration not stated),–,14.7,–
